Assay results taken from patent publication US10988477B2 (Merck Patent GmbH, priority 2018, dated 2021).

What was measured:
[1] = molecular target: intracellular GCN2 (phosphorylation of the GCN2 substrate eIF2α) (Homo sapiens, UniProt Q9P2K8); assay: GCN2 cellular inhibition assay (AlphaScreen SureFire P-eIF2α Ser51, borrelidin-treated U2OS cells); format: cell-based; conditions: biomarker assay, phosphorylated eIF2α Ser51 in borrelidin-treated U2OS cells
Procedure, shortened: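 U2OS cells adhered overnight, then treated with compounds (4-fold serial dilutions from 40 μM final) plus borrelidin 10 μM final for 1 h at 37 °C. Lysate eIF2α Ser51 phosphorylation measured by AlphaScreen SureFire. Percent inhibition calculated relative to borrelidin-only wells.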

GCN2 kinase = GCN2 kinase (Homo sapiens, UniProt Q9P2K8); assay: GCN2 enzyme inhibition assay (Transcreener ADP2 fluorescence polarization); format: biochemical; conditions: 280 μM ATP
Chain of GCN2 kinase (Q9P2K8 whole entry): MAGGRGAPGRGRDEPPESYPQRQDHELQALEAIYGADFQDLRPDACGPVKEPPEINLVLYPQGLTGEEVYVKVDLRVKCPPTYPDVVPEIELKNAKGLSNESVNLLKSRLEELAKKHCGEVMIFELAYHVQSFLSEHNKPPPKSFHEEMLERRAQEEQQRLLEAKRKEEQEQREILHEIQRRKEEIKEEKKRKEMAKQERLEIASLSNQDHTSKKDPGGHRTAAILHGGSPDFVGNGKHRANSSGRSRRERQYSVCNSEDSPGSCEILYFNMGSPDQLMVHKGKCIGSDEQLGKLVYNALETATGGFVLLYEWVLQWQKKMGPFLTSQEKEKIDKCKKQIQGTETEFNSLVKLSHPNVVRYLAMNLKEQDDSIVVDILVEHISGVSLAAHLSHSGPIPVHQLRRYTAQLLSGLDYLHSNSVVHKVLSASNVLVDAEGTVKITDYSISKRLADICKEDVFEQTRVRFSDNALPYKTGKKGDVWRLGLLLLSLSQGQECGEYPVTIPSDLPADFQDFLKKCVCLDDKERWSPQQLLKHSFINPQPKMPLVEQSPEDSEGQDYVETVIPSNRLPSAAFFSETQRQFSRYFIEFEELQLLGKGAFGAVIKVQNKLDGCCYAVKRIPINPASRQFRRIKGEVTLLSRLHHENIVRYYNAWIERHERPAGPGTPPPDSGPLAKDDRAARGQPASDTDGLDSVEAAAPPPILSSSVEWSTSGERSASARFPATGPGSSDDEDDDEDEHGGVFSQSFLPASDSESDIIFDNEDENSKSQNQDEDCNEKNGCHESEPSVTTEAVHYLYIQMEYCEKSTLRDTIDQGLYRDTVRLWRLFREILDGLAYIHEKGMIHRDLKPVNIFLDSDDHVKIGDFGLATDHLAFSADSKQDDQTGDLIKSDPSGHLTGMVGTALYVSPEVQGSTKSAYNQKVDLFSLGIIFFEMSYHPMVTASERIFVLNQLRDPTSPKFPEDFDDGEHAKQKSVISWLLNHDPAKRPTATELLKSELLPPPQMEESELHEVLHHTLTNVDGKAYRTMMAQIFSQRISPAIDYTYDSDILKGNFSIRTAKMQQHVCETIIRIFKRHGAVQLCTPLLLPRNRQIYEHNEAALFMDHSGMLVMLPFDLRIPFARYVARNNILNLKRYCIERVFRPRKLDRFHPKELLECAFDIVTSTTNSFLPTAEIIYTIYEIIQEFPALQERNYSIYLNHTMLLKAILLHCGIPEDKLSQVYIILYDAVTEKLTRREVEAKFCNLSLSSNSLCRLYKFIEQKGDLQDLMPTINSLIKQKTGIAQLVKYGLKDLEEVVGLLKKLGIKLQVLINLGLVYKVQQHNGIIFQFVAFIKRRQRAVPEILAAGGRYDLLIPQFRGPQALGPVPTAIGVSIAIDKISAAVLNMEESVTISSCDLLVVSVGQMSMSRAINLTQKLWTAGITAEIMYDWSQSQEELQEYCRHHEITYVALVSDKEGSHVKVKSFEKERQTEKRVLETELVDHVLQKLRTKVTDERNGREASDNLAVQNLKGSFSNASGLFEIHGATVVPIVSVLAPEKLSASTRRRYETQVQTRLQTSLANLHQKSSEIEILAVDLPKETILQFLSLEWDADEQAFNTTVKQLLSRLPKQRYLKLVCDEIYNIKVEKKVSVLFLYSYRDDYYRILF
Procedure, shortened: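 Inhibition of 4 nM GCN2 was measured with compound up to 8 μM final, ATP 280 μM and (RS)7 peptide 200 μM over a 1 h, 25 °C reaction. ADP FP readout; IC50 and Ki(app) calculated from percent inhibition.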

[2] = Enzyme activity for compounds of Formula IV, Ki(app), 25° C.
[3] = compounds of Formula II, 4 nM GCN2 kinase

Chain of intracellular GCN2 (phosphorylation of the GCN2 substrate eIF2α) (Q9P2K8 whole entry): as above

Structure (SMILES) | IC50 ([1]; compounds of Formula IV) | Ki (GCN2 kinase; [2]) | IC50 ([1]; compounds of Formula II) | Ki (GCN2 kinase; [3]) | IC50 (GCN2 kinase; compounds of Formula IV, 4 nM GCN2 kinase)
CC1C(CNS(N)(=O)=O)CCCN1c1cc(-c2cnc3ccc(C(F)F)nn23)ncn1 (centres unmarked) [II-387, 6-(Difluoromethyl)-3-[6-[2-methyl-3-[(sulfamoylamino)methyl]-1-piperidyl]pyrimidin-4-yl]imidazo[1,2-b]pyridazine] | – | – | 500 to 5000 nM | 10 to 1000 nM | –
OC1([C@@H]2CN(c3cc(-c4cnc5ccc(C(F)F)nn45)ncn3)CCN2)CC1 [II-454, (S)-1-(4-(6-(6-(Difluoromethyl)imidazo[1,2-b]pyridazin-3-yl)pyrimidin-4-yl)piperazin-2-yl)cyclopropan-1-ol] | – | – | > 5000 nM | 10 to 1000 nM | –
CNc1cc(-c2cnc3ccc(C(F)F)nn23)cc(N2CCCC(CNS(C)(=O)=O)C2)n1 (centres unmarked) [II-116, N-((1-(4-(6-(Difluoromethyl)imidazo[1,2-b]pyridazin-3-yl)-6-(methylamino)pyridin-2-yl)piperidin-3-yl)methyl)methanesulfonamide] | – | – | 500 to 5000 nM | < 10 nM | –
CC(NS(C)(=O)=O)C1CN(c2cc(-c3cnc4ccc(C(F)F)nn34)ccn2)CCO1 (centres unmarked) [II-106, N-(1-(4-(4-(6-(Difluoromethyl)imidazo[1,2-b]pyridazin-3-yl)pyridin-2-yl)morpholin-2-yl)ethyl)methanesulfonamide] | – | – | 500 to 5000 nM | < 10 nM | –
O=S(=O)(N[C@H]1CCCN(c2cc(-c3cnc4ccc(C(F)F)nn34)ncn2)C1)C1CNC1 [II-435, (S)—N-(1-(6-(6-(Difluoromethyl)imidazo[1,2-b]pyridazin-3-yl)pyrimidin-4-yl)piperidin-3-yl)azetidine-3-sulfonamide] | – | – | > 5000 nM | 10 to 1000 nM | –
CC(=O)N1CCN(c2cncc(-c3cnc4ccc(C(F)F)nn34)c2)CC1 [II-171, 1-(4-(5-(6-(Difluoromethyl)imidazo[12-b]pyridazin-3-yl)pyridin-3-yl)piperazin-1-yl)ethanone] | – | – | 500 to 5000 nM | 10 to 1000 nM | –
CS(=O)(=O)N1CCCC(c2cc(-c3cnc4ccc(C(F)F)nn34)ncn2)CC1 (centres unmarked) [II-14, 6-(Difluoromethyl)-3-(6-(1-(methylsulfonyl)azepan-4-yl)pyrimidin-4-yl)imidazo[1,2-b]pyridazine] | – | – | > 5000 nM | 10 to 1000 nM | –
CC1CC(C(N)=O)C(C)N(c2cc(-c3cnc4ccc(C(F)(F)F)nn34)ncn2)C1 (single isomer, unassigned) [II-717, 2,5-Dimethyl-1-[6-[6-(trifluoromethyl)imidazo[1,2-b]pyridazin-3-yl]pyrimidin-4-yl]piperidine-3-carboxamide] | – | – | < 500 nM | < 10 nM | –
Cc1cc(-c2cnc3ccc(C(F)F)nn23)cc(N2CCCC(CNS(C)(=O)=O)C2)n1 (centres unmarked) [II-129, N-((1-(4-(6-(Difluoromethyl)imidazo[1,2-b]pyridazin-3-yl)-6-methylpyridin-2-yl)piperidin-3-yl)methyl)methanesulfonamide] | – | – | 500 to 5000 nM | < 10 nM | –
CS(=O)(=O)N1CC2(CCCN(c3cncc(-c4cnc5ccc(C(F)F)nn45)c3)C2)C1 [II-101, 6-(Difluoromethyl)-3-(5-(2-(methylsulfonyl)-2,6-diazaspiro[3.5]nonan-6-yl)pyridin-3-yl)imidazo[1,2-b]pyridazine] | – | – | 500 to 5000 nM | < 10 nM | –
CC1C(CNS(C)(=O)=O)C(F)(F)C(C)CN1c1cc(-c2cnc3ccc(C(F)F)nn23)ncn1 (single isomer, unassigned) [II-469, N-((1-(6-(6-(Difluoromethyl)imidazo[1,2-b]pyridazin-3-yl)pyrimidin-4-yl)-4,4-difluoro-2,5-dimethylpiperidin-3-yl)methyl)methanesulfonamide] | – | – | 500 to 5000 nM | 10 to 1000 nM | –

Next, values leading:

IC50 ([1]; compounds of Formula IV) | Ki (GCN2 kinase; [2]) | IC50 ([1]; compounds of Formula II) | Ki (GCN2 kinase; [3]) | IC50 (GCN2 kinase; compounds of Formula IV, 4 nM GCN2 kinase) | Structure (SMILES)
> 5000 nM | 100 to 1000 nM | – | – | – | Clc1cn2c(-c3nccc(N4CCNC(c5c[nH]cn5)C4)n3)cnc2cn1 (centres unmarked) [IV-347, 3-(4-(3-(1H-Imidazol-4-yl)piperazin-1-yl)pyrimidin-2-yl)-6-chloroimidazo[1,2-a]pyrazine]
> 5000 nM | 100 to 1000 nM | – | – | – | CS(=O)(=O)NC[C@@H]1CN(c2nc(-c3cnc4cnc(C(F)F)cn34)ns2)CCO1 [IV-703, (S)—N-((4-(3-(6-(difluoromethyl)imidazo[1,2-a]pyrazin-3-yl)-1,2,4-thiadiazol-5-yl)morpholin-2-yl)methyl)methanesulfonamide]
> 5000 nM | 100 to 1000 nM | – | – | – | CN1CCN(Cc2cccc(-c3ccnc(-c4cnc5cnc(C(F)F)cn45)n3)c2)CC1 [IV-166, 6-(Difluoromethyl)-3-(4-(3-((4-methylpiperazin-1-yl)methyl)phenyl)pyrimidin-2-yl)imidazo[1,2-a]pyrazine]
> 5000 nM | 100 to 1000 nM | – | – | – | CNS(=O)(=O)C1CCCN(c2ccnc(-c3cnc4cnc(C(F)F)cn34)n2)C1 (centres unmarked) [IV-164, 1-(2-(6-(Difluoromethyl)imidazo[1,2-a]pyrazin-3-yl)pyrimidin-4-yl)-N-methylpiperidine-3-sulfonamide]
500 to 5000 nM | 10 to 100 nM | – | – | – | CC1C(c2cn[nH]c2)NCCN1c1ccnc(-c2cnc3cnc(Br)cn23)n1 (single isomer, unassigned) [IV-413, 6-Bromo-3-(4-(2-methyl-3-(1H-pyrazol-4-yl)piperazin-1-yl)pyrimidin-2-yl)imidazo[1,2-a]pyrazine]
500 to 5000 nM | < 10 nM | – | – | – | NC(=O)[C@H]1CCCN(c2ccnc(-c3cnc4cnc(C(F)(F)F)cn34)n2)C1 [IV-60, (S)-1-(2-(6-(Trifluoromethyl)imidazo[1,2-a]pyrazin-3-yl)pyrimidin-4-yl)piperidine-3-carboxamide]
> 5000 nM | > 1000 nM | – | – | – | N#Cc1ccc(C(=O)N[C@H]2CCCN(c3ccnc(-c4cnc5cnc(C(F)(F)F)cn45)n3)C2)cc1 [IV-743]
500 to 5000 nM | 10 to 100 nM | – | – | – | C[C@H]1[C@@H](c2cn[nH]c2)NCCN1c1ccnc(-c2cnc3cnc(C4CC4)cn23)n1 (racemic) [IV-411, Cis-6-Cyclopropyl-3-(4-(2-methyl-3-(1H-pyrazol-4-yl)piperazin-1-yl)pyrimidin-2-yl)imidazo[1,2-a]pyrazine]
< 500 nM | < 10 nM | – | – | – | C[C@H]1[C@@H](c2cn[nH]c2)CCCN1c1ccnc(-c2cnc3cnc(Br)cn23)n1 (relative stereo) [IV-387, Cis-6-Bromo-3-(4-(2-methyl-3-(1H-pyrazol-4-yl)piperidin-1-yl)pyrimidin-2-yl)imidazo[1,2-a]pyrazine]
< 500 nM | – | – | – | 10 to 1000 nM | C[C@@H]1C[C@@H](c2c[nH]nc2F)CN(c2ccnc(-c3cnc4cnc(C(F)(F)F)cn34)n2)C1 [IV-765]
< 500 nM | < 10 nM | – | – | – | Brc1cn2c(-c3nccc(N4CCCC(c5c[nH]cn5)C4)n3)cnc2cn1 (centres unmarked) [IV-363, 3-(4-(3-(1H-Imidazol-4-yl)piperidin-1-yl)pyrimidin-2-yl)-6-bromoimidazo[1,2-a]pyrazine]
> 5000 nM | 100 to 1000 nM | – | – | – | CN1CCN(c2ccnc(-c3cnc4cnc(C(F)F)cn34)n2)CC1C(N)=O (centres unmarked) [IV-89, 4-(2-(6-(Difluoromethyl)imidazo[1,2-a]pyrazin-3-yl)pyrimidin-4-yl)-1-methylpiperazine-2-carboxamide]
> 5000 nM | 100 to 1000 nM | – | – | – | OC1CCCN(c2ccnc(-c3cnc4cnc(C(F)(F)F)cn34)n2)C1 (centres unmarked) [IV-437, 1-(2-(6-(Trifluoromethyl)imidazo[1,2-a]pyrazin-3-yl)pyrimidin-4-yl)piperidin-3-ol]
500 to 5000 nM | 10 to 100 nM | – | – | – | CC1C(c2cn[nH]c2)OCCN1c1nccc(-c2cnc3cnc(C(F)(F)F)cn23)n1 (centres unmarked) [IV-418, 3-Methyl-2-(1H-pyrazol-4-yl)-4-(4-(6-(trifluoromethyl)imidazo[1,2-a]pyrazin-3-yl)pyrimidin-2-yl)morpholine]
> 5000 nM | 100 to 1000 nM | – | – | – | FC(F)(F)c1cn2c(-c3nccc(N4CCCCC4)n3)cnc2cn1 [IV-423, 3-(4-(Piperidin-1-yl)pyrimidin-2-yl)-6-(trifluoromethyl)imidazo[1,2-a]pyrazine]
500 to 5000 nM | 10 to 100 nM | – | – | – | C[C@@H]1CN(c2ccnc(-c3cnc4cnc(Cl)cn34)n2)C[C@H](c2cn[nH]c2)N1 (racemic) [IV-206, Cis-6-Chloro-3-(4-(3-methyl-5-(H-pyrazol-4-yl)piperazin-1-yl)pyrimidin-2-yl)imidazo[1,2-a]pyrazine]
> 5000 nM | 100 to 1000 nM | – | – | – | OC1CCN(c2ccnc(-c3cnc4cnc(C(F)F)cn34)n2)C1 (centres unmarked) [IV-72, 1-(2-(6-(Difluoromethyl)imidazo[1,2-a]pyrazin-3-yl)pyrimidin-4-yl)pyrrolidin-3-ol]
500 to 5000 nM | 10 to 100 nM | – | – | – | Cc1n[nH]cc1C1CCCN(c2ccnc(-c3cnc4cnc(C(F)F)cn34)n2)C1 (single isomer, unassigned) [IV-468, 6-(Difluoromethyl)-3-(4-(3-(3-methyl-1H-pyrazol-4-yl)piperidin-1-yl)pyrimidin-2-yl)imidazo[1,2-a]pyrazine]
500 to 5000 nM | 100 to 1000 nM | – | – | – | CC1C(c2cn[nH]c2)NCCN1c1ccnc(-c2cnc3cnc(Br)cn23)n1 (single isomer, unassigned) [IV-350, 6-Bromo-3-(4-(2-methyl-3-(1H-pyrazol-4-yl)piperazin-1-yl)pyrimidin-2-yl)imidazo[1,2-a]pyrazine]
> 5000 nM | 100 to 1000 nM | – | – | – | CC1C(c2cn[nH]c2)NCCN1c1ccnc(-c2cnc3cnc(C(F)(F)F)cn23)n1 (single isomer, unassigned) [IV-357, 3-(4-(2-Methyl-3-(1H-pyrazol-4-yl)piperazin-1-yl)pyrimidin-2-yl)-6-(trifluoromethyl)imidazo[1,2-a]pyrazine]
